Laboratory results reported in patent US20260234125A1, “CYCLIC AMINE DERIVATIVE, AND COMPOSITION AND USE THEREOF” (SHANGHAI JINGXIN BIOMEDICAL CO., LTD., priority 2023, published 2026).

How the values were obtained:
[1] = system: Salmonella typhimurium TA1535; experiment: Salmonella typhimurium reverse mutation test, TA1535; type: cell-based; design: key: + indicates a positive mutagenic result; − indicates a negative mutagenic result
Method: (§1) The revived strains or a single colony from the master plate were inoculated into the broth, and cultured in a thermostat gas bath vibrator at 100 to 120 rpm and 37±1° C. for 10 to 16 hours, marked and stored for later use. The bottom agar medium (containing an appropriate amount of agar, Vogel-Bonner buffer, 20% glucose solution and 20% magnesium sulfate solution) was poured into a six-well plate, approximately […] into each well, and allowed to cool and solidify naturally, marked each well and stored for later use.
(§2) Three wells were set up in each group for parallel experiments. The top agar medium was sterilized under high pressure and kept warm at about 65° C. In each test tube, 0.1 mL of negative control (DMSO) or positive control or test sample, 0.1 mL of bacterial solution suspension, 0.5 mL of phosphate buffer (0.2M PBS) (−S9) or 0.5 mL of S9 mixed solution (+S9) and 2.5 mL top culture medium were added, after vortex mixing, and then quickly and evenly spread on the culture dish which was already spreaded with the bottom agar medium. After natural cooling and solidification, the culture dish was inverted and placed in a 37° C. incubator for 48 to 72 hours. After culturing for 48 to 72 hours, the culture dish was taken out, and the number of revertant colonies in each well was counted, the growth background was observed under a microscope to determine whether there was antibacterial or bactericidal activity, and the experimental results were recorded.

[2] = Exposure determination in beagle dogs; type: in vivo; conditions: dog, single oral gavage 4.5 mg/kg, plasma
Method: • 1. Experimental purpose: The purpose of this test is to test the exposure of the compound in beagle dogs • 2. Experimental methods: Beagle dogs were housed with a standard light cycle (12 hours light/12 hours dark), at a room temperature of 18-26° C. and a relative humidity of 40-70%, with free access to water and normal diet. Five days prior to the study, the beagle dogs were randomly assigned to groups based on their body weight for the study, including an oral administration group (n=3/group). The administration volume was calculated according to the weight of the animals on the day of administration, and the administration volume was 5 mL/kg, the single oral gavage administration was performed at a dose of 4.5 mg/kg, and the solvent was 1% HEC and 0.25% Tween 80 in Water. Blood was collected from the forelimb vein or other suitable veins at 0.5 h, 1 h, 2 h, 4 h, 6 h, 8 h, 12 h, 24 h, 48 h, 72 h and 96 h after administration. About 1 mL of each sample was collected, K2-EDTA anticoagulated, placed on ice after collection, and within 1 hour, centrifuged to separate plasma (centrifugation conditions: 2200 g, 10 minutes, 2-8° C.) for blood drug concentration detection.

[3] = system: Salmonella typhimurium TA102; experiment: Salmonella typhimurium reverse mutation test, TA102; type: cell-based; design: key: + indicates a positive mutagenic result; − indicates a negative mutagenic result
Method: as §1, §2

[4] = system: Salmonella typhimurium TA100; experiment: Salmonella typhimurium reverse mutation test, TA100; type: cell-based; design: key: + indicates a positive mutagenic result; − indicates a negative mutagenic result
Method: as §1, §2

[5] = system: Salmonella typhimurium TA98; experiment: Salmonella typhimurium reverse mutation test, TA98; type: cell-based; design: key: + indicates a positive mutagenic result; − indicates a negative mutagenic result
Method: as §1, §2

[6] = system: Salmonella typhimurium TA1537; experiment: Salmonella typhimurium reverse mutation test, TA1537; type: cell-based; design: key: + indicates a positive mutagenic result; − indicates a negative mutagenic result
Method: as §1, §2

With `O=C(O)[C@@H](Cc1cccc(CN(Cc2cccc(C[C@H](C(=O)O)[C@H]3CCNC3)c2)Cc2cccc(C[C@H](C(=O)O)[C@H]3CCNC3)c2)c1)[C@H]1CCNC1` [Comparative Example 1, reference compound] the mutagenicity ([1]; TA1535, +S9, 62 μg/dish) was “−”, the mutagenicity ([1]; TA1535, +S9, 185 μg/dish) was “−” and the mutagenicity ([1]; TA1535, +S9, 556 μg/dish) was “−”. The mutagenicity ([1]; TA1535, +S9, 1667 μg/dish) was “−”, the mutagenicity ([1]; TA1535, +S9, 5000 μg/dish) was “−” and the mutagenicity ([1]; TA1535, −S9, 62 μg/dish) was “−”. The mutagenicity ([1]; TA1535, −S9, 185 μg/dish) was “−”, the mutagenicity ([1]; TA1535, −S9, 556 μg/dish) was “−” and the mutagenicity ([1]; TA1535, −S9, 1667 μg/dish) was “−”. The mutagenicity ([1]; TA1535, −S9, 5000 μg/dish) was “−”, the AUC(0-inf) [2] was 37400 ng·h/mL and the mutagenicity ([3]; TA102, +S9, 62 μg/dish) was “−”. For the same compound, the mutagenicity ([3]; TA102, +S9, 185 μg/dish) was “−”, the mutagenicity ([3]; TA102, +S9, 556 μg/dish) was “−” and the mutagenicity ([3]; TA102, +S9, 1667 μg/dish) was “−”. The mutagenicity ([3]; TA102, +S9, 5000 μg/dish) was “−”, the mutagenicity ([3]; TA102, −S9, 62 μg/dish) was “−” and the mutagenicity ([3]; TA102, −S9, 185 μg/dish) was “−”. The mutagenicity ([3]; TA102, −S9, 556 μg/dish) was “−”, the mutagenicity ([3]; TA102, −S9, 1667 μg/dish) was “−” and the mutagenicity ([3]; TA102, −S9, 5000 μg/dish) was “−”. The mutagenicity ([4]; TA100, +S9, 62 μg/dish) was “−”, the mutagenicity ([4]; TA100, +S9, 185 μg/dish) was “−” and the mutagenicity ([4]; TA100, +S9, 556 μg/dish) was “−”. For the same compound, the mutagenicity ([4]; TA100, +S9, 1667 μg/dish) was “−”, the mutagenicity ([4]; TA100, +S9, 5000 μg/dish) was “−” and the mutagenicity ([4]; TA100, −S9, 62 μg/dish) was “−”. For the same compound, the mutagenicity ([4]; TA100, −S9, 185 μg/dish) was “−”, the mutagenicity ([4]; TA100, −S9, 556 μg/dish) was “−” and the mutagenicity ([4]; TA100, −S9, 1667 μg/dish) was “−”. The mutagenicity ([4]; TA100, −S9, 5000 μg/dish) was “−”, the mutagenicity ([5]; TA98, +S9, 62 μg/dish) was “−” and the mutagenicity ([5]; TA98, +S9, 185 μg/dish) was “−”. For the same compound, the mutagenicity ([5]; TA98, +S9, 556 μg/dish) was “+”, the mutagenicity ([5]; TA98, +S9, 1667 μg/dish) was “+” and the mutagenicity ([5]; TA98, +S9, 5000 μg/dish) was “+”. For the same compound, the mutagenicity ([5]; TA98, −S9, 62 μg/dish) was “−”, the mutagenicity ([5]; TA98, −S9, 185 μg/dish) was “+” and the mutagenicity ([5]; TA98, −S9, 556 μg/dish) was “+”. For the same compound, the mutagenicity ([5]; TA98, −S9, 1667 μg/dish) was “+”, the mutagenicity ([5]; TA98, −S9, 5000 μg/dish) was “+” and the mutagenicity ([6]; TA1537, +S9, 62 μg/dish) was “−”. The mutagenicity ([6]; TA1537, +S9, 185 μg/dish) was “−”, the mutagenicity ([6]; TA1537, +S9, 556 μg/dish) was “−” and the mutagenicity ([6]; TA1537, +S9, 1667 μg/dish) was “−”. For the same compound, the mutagenicity ([6]; TA1537, +S9, 5000 μg/dish) was “−”, the mutagenicity ([6]; TA1537, −S9, 62 μg/dish) was “−” and the mutagenicity ([6]; TA1537, −S9, 185 μg/dish) was “−”. For the same compound, the mutagenicity ([6]; TA1537, −S9, 556 μg/dish) was “−”, the mutagenicity ([6]; TA1537, −S9, 1667 μg/dish) was “−” and the mutagenicity ([6]; TA1537, −S9, 5000 μg/dish) was “−”.
In the case of `O=C(O)[C@@H](Cc1cccc(CN(Cc2cccc(C[C@H](C(=O)O)[C@H]3CCNC3)c2)C(=O)c2cccc(C[C@H](C(=O)O)[C@H]3CCNC3)c2)c1)[C@H]1CCNC1` [Example 5], the mutagenicity ([1]; TA1535, +S9, 62 μg/dish) is reported as “−”, the mutagenicity ([1]; TA1535, +S9, 185 μg/dish) is reported as “−” and the mutagenicity ([1]; TA1535, +S9, 556 μg/dish) is reported as “−”. For the same compound, the mutagenicity ([1]; TA1535, +S9, 1667 μg/dish) was “−”, the mutagenicity ([1]; TA1535, +S9, 5000 μg/dish) was “−” and the mutagenicity ([1]; TA1535, −S9, 62 μg/dish) was “−”. The mutagenicity ([1]; TA1535, −S9, 185 μg/dish) was “−”, the mutagenicity ([1]; TA1535, −S9, 556 μg/dish) was “−” and the mutagenicity ([1]; TA1535, −S9, 1667 μg/dish) was “−”. For the same compound, the mutagenicity ([1]; TA1535, −S9, 5000 μg/dish) was “−”, the AUC(0-inf) [2] was 119000 ng·h/mL and the mutagenicity ([3]; TA102, +S9, 62 μg/dish) was “−”. For the same compound, the mutagenicity ([3]; TA102, +S9, 185 μg/dish) was “−”, the mutagenicity ([3]; TA102, +S9, 556 μg/dish) was “−” and the mutagenicity ([3]; TA102, +S9, 1667 μg/dish) was “−”. The mutagenicity ([3]; TA102, +S9, 5000 μg/dish) was “−”, the mutagenicity ([3]; TA102, −S9, 62 μg/dish) was “−” and the mutagenicity ([3]; TA102, −S9, 185 μg/dish) was “−”. The mutagenicity ([3]; TA102, −S9, 556 μg/dish) was “−”, the mutagenicity ([3]; TA102, −S9, 1667 μg/dish) was “−” and the mutagenicity ([3]; TA102, −S9, 5000 μg/dish) was “−”. The mutagenicity ([4]; TA100, +S9, 62 μg/dish) was “−”, the mutagenicity ([4]; TA100, +S9, 185 μg/dish) was “−” and the mutagenicity ([4]; TA100, +S9, 556 μg/dish) was “−”. For the same compound, the mutagenicity ([4]; TA100, +S9, 1667 μg/dish) was “−”, the mutagenicity ([4]; TA100, +S9, 5000 μg/dish) was “−” and the mutagenicity ([4]; TA100, −S9, 62 μg/dish) was “−”. For the same compound, the mutagenicity ([4]; TA100, −S9, 185 μg/dish) was “−”, the mutagenicity ([4]; TA100, −S9, 556 μg/dish) was “−” and the mutagenicity ([4]; TA100, −S9, 1667 μg/dish) was “−”. The mutagenicity ([4]; TA100, −S9, 5000 μg/dish) was “−”, the mutagenicity ([5]; TA98, +S9, 62 μg/dish) was “−” and the mutagenicity ([5]; TA98, +S9, 185 μg/dish) was “−”. The mutagenicity ([5]; TA98, +S9, 556 μg/dish) was “−”, the mutagenicity ([5]; TA98, +S9, 1667 μg/dish) was “−” and the mutagenicity ([5]; TA98, +S9, 5000 μg/dish) was “−”. For the same compound, the mutagenicity ([5]; TA98, −S9, 62 μg/dish) was “−”, the mutagenicity ([5]; TA98, −S9, 185 μg/dish) was “−” and the mutagenicity ([5]; TA98, −S9, 556 μg/dish) was “−”. For the same compound, the mutagenicity ([5]; TA98, −S9, 1667 μg/dish) was “−”, the mutagenicity ([5]; TA98, −S9, 5000 μg/dish) was “−” and the mutagenicity ([6]; TA1537, +S9, 62 μg/dish) was “−”. For the same compound, the mutagenicity ([6]; TA1537, +S9, 185 μg/dish) was “−”, the mutagenicity ([6]; TA1537, +S9, 556 μg/dish) was “−” and the mutagenicity ([6]; TA1537, +S9, 1667 μg/dish) was “−”. For the same compound, the mutagenicity ([6]; TA1537, +S9, 5000 μg/dish) was “−”, the mutagenicity ([6]; TA1537, −S9, 62 μg/dish) was “−” and the mutagenicity ([6]; TA1537, −S9, 185 μg/dish) was “−”. For the same compound, the mutagenicity ([6]; TA1537, −S9, 556 μg/dish) was “−”, the mutagenicity ([6]; TA1537, −S9, 1667 μg/dish) was “−” and the mutagenicity ([6]; TA1537, −S9, 5000 μg/dish) was “−”.
